Results: the supplement of paper PMC10307832

Assays:
Test in all cases: relative viability (nuclei count vs DMSO), 5 days (fraction); higher = more cells survive
Foretinib = compound: COc1cc2c(Oc3ccc(NC(=O)C4(C(=O)Nc5ccc(F)cc5)CC4)cc3F)ccnc2cc1OCCCN1CCOCC1 [Foretinib] (anchor plate); settings: 0.25 µM
Outline: (§1)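 Only plates meeting two conditions passed: control CV below 25% and at least one doubling. Lung cancer cell lines, kept overnight at 37 °C in 1536-well plates, were pinned with five library-drug doses (not always all listed) √10 apart on vehicle-anchored plates and grown 5 days without medium change. A one-step fix, permeabilisation and Hoechst stain preceded 4× imaging and MetaXpress nuclear counting. Viability equals treated-well nuclei divided by vehicle-well nuclei, as the median over plates.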

[1] = compound: O=S(=O)(c1ccccc1)N(CC(F)(F)F)c1ccc(C(O)(C(F)(F)F)C(F)(F)F)cc1
Outline: as §1

RO-3306 = compound: C1=CC2=C(C=CC(=C2)C=C3C(=O)NC(=NCC4=CC=CS4)S3)N=C1 [RO-3306]
Outline: as §1

[2] = compound: O=S(=O)(c1ccccc1)N(CC(F)(F)F)c1ccc(C(O)(C(F)(F)F)C(F)(F)F)cc1 + O=C(c1cc(Cc2n[nH]c(=O)c3ccccc23)ccc1F)N1CCN(C(=O)C2CC2)CC1 [Olaparib] (partner 8 µM)
Outline: (§2)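 Relative viability divides the nuclei count in treated wells by that in vehicle wells. Lung cancer cell lines were seeded in 1536-well plates, dosed by pin tool the next day, and fixed and stained after 5 days in one step with final 0.05% Triton X-100, 1% formaldehyde and 1 ug/ml Hoechst. Dosing was a single drug or a fixed anchor-drug dose plus five library-drug doses (not always all listed) in √10 steps, and values are medians of duplicate plates imaged at 4×.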

RO-3306 + Palbociclib = compound: C1=CC2=C(C=CC(=C2)C=C3C(=O)NC(=NCC4=CC=CS4)S3)N=C1 [RO-3306] + CC(=O)c1c(C)c2cnc(Nc3ccc(N4CCNCC4)cn3)nc2n(C2CCCC2)c1=O [Palbociclib] (partner 0.5 µM)
Outline: as §2

[3] = compound: O=S(=O)(c1ccccc1)N(CC(F)(F)F)c1ccc(C(O)(C(F)(F)F)C(F)(F)F)cc1 + C[C@]1(O)C[C@@H](c2nc(-c3ccc4ccc(-c5ccccc5)nc4c3)c3c(N)nccn32)C1 [Linsitinib] (partner 1 µM)
Outline: as §2

201T was tested, and the relative viability (Foretinib) was 1.16, the relative viability ([1]; 0.8 µM) was 1.02 and the relative viability ([1]; 2.53 µM) was 0.928. The relative viability ([1]; 8 µM) was 1.06, the relative viability (RO-3306; 0.01 µM) was 1.06 and the relative viability (RO-3306; 0.03162 µM) was 0.969. It also gave a relative viability (RO-3306; 0.1 µM) of 0.956, a relative viability (RO-3306; 0.3162 µM) of 0.987 and a relative viability (RO-3306; 1 µM) of 0.746. The relative viability ([2]; first compound 0.8 µM) was 0.815, the relative viability ([2]; first compound 2.53 µM) was 0.793 and the relative viability ([2]; first compound 8 µM) was 0.819. For the same cell line, the relative viability (RO-3306 + Palbociclib; first compound 0.01 µM) was 0.31, the relative viability (RO-3306 + Palbociclib; first compound 0.03162 µM) was 0.342 and the relative viability (RO-3306 + Palbociclib; first compound 0.1 µM) was 0.325. The relative viability (RO-3306 + Palbociclib; first compound 0.3162 µM) was 0.36, the relative viability (RO-3306 + Palbociclib; first compound 1 µM) was 0.367 and the relative viability ([3]; first compound 0.8 µM) was 0.996. The relative viability ([3]; first compound 2.53 µM) was 0.941 and the relative viability ([3]; first compound 8 µM) was 1.04.

Cell Line A549 has a relative viability (Foretinib) of 0.951, a relative viability ([1]; 0.8 µM) of 1.07 and a relative viability ([1]; 2.53 µM) of 0.914. The relative viability ([1]; 8 µM) was 0.886, the relative viability (RO-3306; 0.01 µM) was 1.13 and the relative viability (RO-3306; 0.03162 µM) was 0.811. It also gave a relative viability (RO-3306; 0.1 µM) of 0.994, a relative viability (RO-3306; 0.3162 µM) of 1 and a relative viability (RO-3306; 1 µM) of 1.05. For the same cell line, the relative viability ([2]; first compound 0.8 µM) was 0.299, the relative viability ([2]; first compound 2.53 µM) was 0.278 and the relative viability ([2]; first compound 8 µM) was 0.204. For the same cell line, the relative viability ([3]; first compound 0.8 µM) was 0.697, the relative viability ([3]; first compound 2.53 µM) was 0.585 and the relative viability ([3]; first compound 8 µM) was 0.603.

A-427 showed a relative viability (Foretinib) of 1.08, a relative viability ([1]; 0.8 µM) of 1.08 and a relative viability ([1]; 2.53 µM) of 0.929. The relative viability ([1]; 8 µM) was 1.21, the relative viability (RO-3306; 0.01 µM) was 1.06 and the relative viability (RO-3306; 0.03162 µM) was 0.94. The relative viability (RO-3306; 0.1 µM) was 1, the relative viability (RO-3306; 0.3162 µM) was 1.02 and the relative viability (RO-3306; 1 µM) was 0.574. The relative viability ([2]; first compound 0.8 µM) was 0.807, the relative viability ([2]; first compound 2.53 µM) was 0.673 and the relative viability ([2]; first compound 8 µM) was 0.778. For the same cell line, the relative viability (RO-3306 + Palbociclib; first compound 0.01 µM) was 0.502, the relative viability (RO-3306 + Palbociclib; first compound 0.03162 µM) was 0.513 and the relative viability (RO-3306 + Palbociclib; first compound 0.1 µM) was 0.545. For the same cell line, the relative viability (RO-3306 + Palbociclib; first compound 0.3162 µM) was 0.57, the relative viability (RO-3306 + Palbociclib; first compound 1 µM) was 0.516 and the relative viability ([3]; first compound 0.8 µM) was 1.04. It also gave a relative viability ([3]; first compound 2.53 µM) of 1.03 and a relative viability ([3]; first compound 8 µM) of 1.12.

Work on ABC-1 yielded a relative viability (Foretinib) of 1.07, a relative viability ([1]; 0.8 µM) of 0.758 and a relative viability ([1]; 2.53 µM) of 0.843. For the same cell line, the relative viability ([1]; 8 µM) was 1.03, the relative viability (RO-3306; 0.01 µM) was 0.94 and the relative viability (RO-3306; 0.03162 µM) was 0.769. For the same cell line, the relative viability (RO-3306; 0.1 µM) was 0.901, the relative viability (RO-3306; 0.3162 µM) was 0.887 and the relative viability (RO-3306; 1 µM) was 0.817. The relative viability ([2]; first compound 2.53 µM) was 0.763, the relative viability ([2]; first compound 8 µM) was 0.638 and the relative viability (RO-3306 + Palbociclib; first compound 0.01 µM) was 0.869. The relative viability (RO-3306 + Palbociclib; first compound 0.03162 µM) was 0.406, the relative viability (RO-3306 + Palbociclib; first compound 0.1 µM) was 0.66 and the relative viability (RO-3306 + Palbociclib; first compound 0.3162 µM) was 0.799. It also gave a relative viability (RO-3306 + Palbociclib; first compound 1 µM) of 0.458, a relative viability ([3]; first compound 0.8 µM) of 0.85 and a relative viability ([3]; first compound 2.53 µM) of 0.581. The relative viability ([3]; first compound 8 µM) was 0.485.

BEN showed a relative viability (Foretinib) of 0.668, a relative viability ([1]; 0.8 µM) of 0.991 and a relative viability ([1]; 2.53 µM) of 0.895. It also gave a relative viability ([1]; 8 µM) of 0.87, a relative viability (RO-3306; 0.01 µM) of 0.903 and a relative viability (RO-3306; 0.03162 µM) of 0.888. The relative viability (RO-3306; 0.1 µM) was 0.894, the relative viability (RO-3306; 0.3162 µM) was 1.03 and the relative viability (RO-3306; 1 µM) was 0.976. It also gave a relative viability ([2]; first compound 0.8 µM) of 0.889, a relative viability ([2]; first compound 2.53 µM) of 0.875 and a relative viability ([2]; first compound 8 µM) of 0.876. The relative viability (RO-3306 + Palbociclib; first compound 0.01 µM) was 0.49, the relative viability (RO-3306 + Palbociclib; first compound 0.03162 µM) was 0.438 and the relative viability (RO-3306 + Palbociclib; first compound 0.1 µM) was 0.458. It also gave a relative viability (RO-3306 + Palbociclib; first compound 0.3162 µM) of 0.473, a relative viability (RO-3306 + Palbociclib; first compound 1 µM) of 0.476 and a relative viability ([3]; first compound 0.8 µM) of 1.09. It also gave a relative viability ([3]; first compound 2.53 µM) of 0.858 and a relative viability ([3]; first compound 8 µM) of 0.82.

For CAL-12T, the relative viability (Foretinib) was 1.13, the relative viability ([1]; 0.8 µM) was 0.88 and the relative viability ([1]; 2.53 µM) was 0.804. For the same cell line, the relative viability ([1]; 8 µM) was 0.811, the relative viability (RO-3306; 0.01 µM) was 1.01 and the relative viability (RO-3306; 0.03162 µM) was 0.884. It also gave a relative viability (RO-3306; 0.1 µM) of 0.906, a relative viability (RO-3306; 0.3162 µM) of 0.977 and a relative viability (RO-3306; 1 µM) of 1.07. The relative viability ([2]; first compound 0.8 µM) was 0.686, the relative viability ([2]; first compound 2.53 µM) was 0.616 and the relative viability ([2]; first compound 8 µM) was 0.591. For the same cell line, the relative viability (RO-3306 + Palbociclib; first compound 0.01 µM) was 0.67, the relative viability (RO-3306 + Palbociclib; first compound 0.03162 µM) was 0.396 and the relative viability (RO-3306 + Palbociclib; first compound 0.1 µM) was 0.385. The relative viability (RO-3306 + Palbociclib; first compound 0.3162 µM) was 0.388, the relative viability (RO-3306 + Palbociclib; first compound 1 µM) was 0.475 and the relative viability ([3]; first compound 0.8 µM) was 0.719. The relative viability ([3]; first compound 2.53 µM) was 0.499 and the relative viability ([3]; first compound 8 µM) was 0.542.

For COR-L23, the relative viability (Foretinib) was 0.949, the relative viability ([1]; 0.8 µM) was 1.13 and the relative viability ([1]; 2.53 µM) was 0.921. The relative viability ([1]; 8 µM) was 0.858, the relative viability (RO-3306; 0.01 µM) was 1.03 and the relative viability (RO-3306; 0.03162 µM) was 0.892. It also gave a relative viability (RO-3306; 0.1 µM) of 1.04, a relative viability (RO-3306; 0.3162 µM) of 1.04 and a relative viability (RO-3306; 1 µM) of 1.14. The relative viability ([2]; first compound 0.8 µM) was 0.357, the relative viability ([2]; first compound 2.53 µM) was 0.35 and the relative viability ([2]; first compound 8 µM) was 0.34. It also gave a relative viability (RO-3306 + Palbociclib; first compound 0.01 µM) of 0.286, a relative viability (RO-3306 + Palbociclib; first compound 0.03162 µM) of 0.252 and a relative viability (RO-3306 + Palbociclib; first compound 0.1 µM) of 0.293. The relative viability (RO-3306 + Palbociclib; first compound 0.3162 µM) was 0.297, the relative viability (RO-3306 + Palbociclib; first compound 1 µM) was 0.257 and the relative viability ([3]; first compound 0.8 µM) was 1.12. It also gave a relative viability ([3]; first compound 2.53 µM) of 0.971 and a relative viability ([3]; first compound 8 µM) of 0.748.

COR-L 105 gave a relative viability (Foretinib) of 1.07, a relative viability ([1]; 0.8 µM) of 0.947 and a relative viability ([1]; 2.53 µM) of 0.786. It also gave a relative viability ([1]; 8 µM) of 0.918, a relative viability (RO-3306; 0.01 µM) of 0.859 and a relative viability (RO-3306; 0.03162 µM) of 0.784. For the same cell line, the relative viability (RO-3306; 0.1 µM) was 0.798, the relative viability (RO-3306; 0.3162 µM) was 0.906 and the relative viability (RO-3306; 1 µM) was 0.948. For the same cell line, the relative viability ([2]; first compound 0.8 µM) was 0.69, the relative viability ([2]; first compound 2.53 µM) was 0.602 and the relative viability ([2]; first compound 8 µM) was 0.546. The relative viability (RO-3306 + Palbociclib; first compound 0.01 µM) was 0.392, the relative viability (RO-3306 + Palbociclib; first compound 0.03162 µM) was 0.408 and the relative viability (RO-3306 + Palbociclib; first compound 0.1 µM) was 0.412. It also gave a relative viability (RO-3306 + Palbociclib; first compound 0.3162 µM) of 0.404, a relative viability (RO-3306 + Palbociclib; first compound 1 µM) of 0.385 and a relative viability ([3]; first compound 0.8 µM) of 0.896. For the same cell line, the relative viability ([3]; first compound 2.53 µM) was 0.758 and the relative viability ([3]; first compound 8 µM) was 0.96.
